Data reported in the NIST ThermoML archive (doi:10.1021/je5003225).

Tests used:
[1] = Liquid; Ebulliometric method (Recirculating still)
[2] = refractive index (Na D-line) (dimensionless); settings: 298.15 K; 101.33 kPa; Liquid; Standard Abbe refractometry
[3] = xn = mol fraction of the nth substance listed; settings: 298.15 K, 101 kPa, Liquid, Vibrating tube method

CCC(C)O (centres undefined) [butan-2-ol]
Settings | Normal boiling temperature [°C] | refractive index
[1] | 99.61 | –
[2] | – | 1.3949

CCC(C)O (centres undefined) [butan-2-ol] + CCOC(C)=O
[3]
Settings | mass density [kg/m3]
x2 = 0 | 802.5
x2 = 0.0415 | 805.6
x2 = 0.0917 | 809.5
x2 = 0.1482 | 813.9
x2 = 0.208 | 818.7
x2 = 0.257 | 822.8
x2 = 0.2963 | 826.2
x2 = 0.3488 | 830.7
x2 = 0.3914 | 834.5
x2 = 0.4397 | 838.9
x2 = 0.4905 | 843.5
x2 = 0.5313 | 847.3
x2 = 0.6 | 853.8
x2 = 0.6539 | 859
x2 = 0.7031 | 863.8
x2 = 0.741 | 867.5
x2 = 0.7953 | 873
x2 = 0.8528 | 878.9
x2 = 0.8891 | 882.6
x2 = 0.9484 | 889

CCC(C)O (centres undefined) [butan-2-ol] + COC(C)=O
Settings | mass density [kg/m3]
[3], x2 = 0 | 802.5

CCOC(C)=O [ethyl acetate] + CCC(C)O
Settings | mass density [kg/m3]
[3], x1 = 1 | 894.5

COC(C)=O [methyl ethanoate] + CCC(C)O
[3]
Settings | mass density [kg/m3]
x1 = 0.058 | 807.2
x1 = 0.1719 | 817.3
x1 = 0.2756 | 827.5
x1 = 0.3391 | 834.2
x1 = 0.4544 | 847.3
x1 = 0.4714 | 849.3
x1 = 0.5051 | 853.4
x1 = 0.5458 | 858.5
x1 = 0.593 | 864.5
x1 = 0.6822 | 876.6
x1 = 0.799 | 893.7
x1 = 0.8576 | 902.9
x1 = 0.8788 | 906.3
x1 = 0.9586 | 919.9
x1 = 1 | 927.3
